Measurements reported in ChEMBL document CHEMBL1137926, “S-(2-(acylamino)phenyl) 2,2-dimethylpropanethioates as CETP inhibitors” (Bioorg Med Chem Lett, 2004).

What follows are compounds tested against T1, Cholesteryl ester transfer protein (Homo sapiens, UniProt P11597) (assay: In vitro inhibition of CETP activity was assessed by measuring the rate of [3H]- cholesteryl ester transfer from HDL to apoprotein B-containing lipoproteins in human plasma).
T1 sequence (P11597 whole entry): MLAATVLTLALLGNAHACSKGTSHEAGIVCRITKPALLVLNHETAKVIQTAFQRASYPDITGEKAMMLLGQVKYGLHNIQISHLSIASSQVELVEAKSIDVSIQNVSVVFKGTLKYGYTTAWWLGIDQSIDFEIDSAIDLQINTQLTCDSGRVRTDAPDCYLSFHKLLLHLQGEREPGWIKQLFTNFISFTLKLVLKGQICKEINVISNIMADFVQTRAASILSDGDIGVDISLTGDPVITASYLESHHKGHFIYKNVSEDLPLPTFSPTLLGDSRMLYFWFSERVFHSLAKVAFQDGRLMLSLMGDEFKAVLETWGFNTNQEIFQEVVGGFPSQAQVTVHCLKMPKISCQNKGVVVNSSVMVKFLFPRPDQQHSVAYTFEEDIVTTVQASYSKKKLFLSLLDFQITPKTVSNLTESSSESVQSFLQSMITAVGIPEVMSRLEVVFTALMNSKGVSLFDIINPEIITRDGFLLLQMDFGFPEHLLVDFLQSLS
Type: cell-free

Structure (SMILES) | IC50
CC(C)(C)C(=O)Sc1cc(F)ccc1NC(=O)C1(C)CCCCC1 | 78 µM
Cc1ccc(SC(=O)C(C)(C)C)c(NC(=O)C2(CCC(C)C)CCCCC2)c1 | > 300 µM
CC(C)(C)C(=O)Sc1ccc(C#N)cc1NC(=O)C1(C)CCCCC1 | 102 µM
COc1ccc(SC(=O)C(C)(C)C)c(NC(=O)C2(CCC(C)C)CCCCC2)c1 | > 300 µM
CC(C)(C)C(=O)Sc1cc(F)cc(F)c1NC(=O)C1(C)CCCCC1 | > 300 µM
COc1ccc(SC(=O)C(C)(C)C)c(NC(=O)C2(C)CCCCC2)c1 | > 300 µM
CC(C)(C)C(=O)Sc1c(F)cccc1NC(=O)C1(C)CCCCC1 | > 300 µM

The next compounds have a lower IC50 than those just listed; values first:

IC50 | Structure (SMILES)
70 µM | CC(C)(C)C(=O)Sc1ccc(F)cc1NC(=O)C1(C)CCCCC1
13 µM | CC(C)CCC1(C(=O)Nc2cc(Cl)ccc2SC(=O)C(C)(C)C)CCCCC1
13 µM | CC(C)CCC1(C(=O)Nc2cc(C(F)(F)F)ccc2SC(=O)C(C)(C)C)CCCCC1
10 µM | CC(C)CCC1(C(=O)Nc2ccc(Cl)cc2SC(=O)C(C)(C)C)CCCCC1
